Reference: PubChem BioAssay AID1963867 (Molecular Pharmacology Branch, DTP, NCI, 2024)

System: KRAS-mutant PDC tumor spheroid with HUVEC/MSC, viability
Assay: Anticancer human tumor 327498-153-R-J2-PDC patient-derived uterine carcinosarcoma cell line growth inhibition [KRAS2]
Details: for IC50: curve of first compound; for viability, T/C: stronger effect = lower value
In short: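 Combination screen of spheroid viability in tumor-cell co-cultures with endothelial (HUVEC) and mesenchymal stem cell stroma. Each agent was tested in half-log dilutions, topping at clinical Cmax or at 10 microM without a known Cmax.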

[1] = second compound 0.1 µM, first compound 0.000316 µM
[2] = second compound 0.1 µM, first compound 0.001 µM
[3] = second compound 0.1 µM, first compound 0.00316 µM
[4] = second compound 0.1 µM, first compound 0.01 µM
[5] = second compound 0.1 µM, first compound 0.0316 µM
[6] = second compound 0.1 µM, first compound 0.1 µM
[7] = second compound 0.316 µM, first compound 0.000316 µM
[8] = second compound 0.316 µM, first compound 0.001 µM
[9] = second compound 0.316 µM, first compound 0.00316 µM
[10] = second compound 0.316 µM, first compound 0.01 µM
[11] = second compound 0.316 µM, first compound 0.0316 µM
[12] = second compound 0.316 µM, first compound 0.1 µM
[13] = second compound 1 µM, first compound 0.000316 µM
[14] = second compound 1 µM, first compound 0.001 µM
[15] = second compound 1 µM, first compound 0.00316 µM
[16] = second compound 1 µM, first compound 0.01 µM
[17] = second compound 1 µM, first compound 0.0316 µM
[18] = second compound 1 µM, first compound 0.1 µM
[19] = second compound 3.16 µM, first compound 0.000316 µM
[20] = second compound 3.16 µM, first compound 0.001 µM
[21] = second compound 3.16 µM, first compound 0.00316 µM
[22] = second compound 3.16 µM, first compound 0.01 µM
[23] = second compound 3.16 µM, first compound 0.0316 µM
[24] = second compound 3.16 µM, first compound 0.1 µM
[25] = second compound 10 µM, first compound 0.000316 µM
[26] = second compound 10 µM, first compound 0.001 µM
[27] = second compound 10 µM, first compound 0.00316 µM
[28] = second compound 10 µM, first compound 0.01 µM
[29] = second compound 10 µM, first compound 0.0316 µM
[30] = second compound 10 µM, first compound 0.1 µM
[31] = second compound 0.0316 µM, first compound 0.0316 µM
[32] = second compound 0.0316 µM, first compound 0.1 µM
[33] = second compound 0.0316 µM, first compound 0.316 µM
[34] = second compound 0.0316 µM, first compound 1 µM
[35] = second compound 0.0316 µM, first compound 3.16 µM
[36] = second compound 0.1 µM, first compound 0.316 µM
[37] = second compound 0.1 µM, first compound 1 µM
[38] = second compound 0.1 µM, first compound 3.16 µM
[39] = second compound 0.316 µM, first compound 0.316 µM
[40] = second compound 0.316 µM, first compound 1 µM
[41] = second compound 0.316 µM, first compound 3.16 µM
[42] = second compound 1 µM, first compound 0.316 µM
[43] = second compound 1 µM, first compound 1 µM
[44] = second compound 1 µM, first compound 3.16 µM
[45] = second compound 3.16 µM, first compound 0.316 µM
[46] = second compound 3.16 µM, first compound 1 µM
[47] = second compound 3.16 µM, first compound 3.16 µM
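Further: spheroids exposed to agents for seven days before reading.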
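Wherever viability, T/C is given: 100% = DMSO vehicle wells so lower means fewer viable cells.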

Cn1ncnc1[C@H]1c2n[nH]c(=O)c3cc(F)cc(c23)N[C@@H]1c1ccc(F)cc1 + CC1OCC2(CCN(c3cnc(Sc4ccnc(N)c4Cl)c(N)n3)CC2)C1N
IC50 (second compound 0.1 µM): 10.9 nM
IC50 (second compound 0.316 µM): 1.14 nM
IC50 (second compound 1 µM): < 0.316 nM
IC50 (second compound 3.16 µM): < 0.316 nM
IC50 (second compound 10 µM): < 0.316 nM
viability, T/C [1]: 71.8%
viability, T/C [2]: 68.1%
viability, T/C [3]: 59.4%
viability, T/C [4]: 55.2%
viability, T/C [5]: 31.4%
viability, T/C [6]: 18%
viability, T/C [7]: 58%
viability, T/C [8]: 51.1%
viability, T/C [9]: 40.7%
viability, T/C [10]: 38.2%
viability, T/C [11]: 23.3%
viability, T/C [12]: 15.6%
viability, T/C [13]: 45.5%
viability, T/C [14]: 37.2%
viability, T/C [15]: 26.6%
viability, T/C [16]: 21.4%
viability, T/C [17]: 15.6%
viability, T/C [18]: 13.2%
viability, T/C [19]: 30%
viability, T/C [20]: 32.2%
viability, T/C [21]: 25%
viability, T/C [22]: 19.2%
viability, T/C [23]: 11.2%
viability, T/C [24]: 9.64%
viability, T/C [25]: 29.5%
viability, T/C [26]: 27.1%
viability, T/C [27]: 21.9%
viability, T/C [28]: 15.5%
viability, T/C [29]: 12.4%
viability, T/C [30]: 8.58%

COc1cc2nccc(Oc3ccc(NC(=O)C4(C(=O)Nc5ccc(F)cc5)CC4)cc3)c2cc1OC + C=CC(=O)N1CCN(c2nc(OCC3CCCN3C)nc3c2CCN(c2cccc4cccc(C)c24)C3)CC1CC#N
IC50 (second compound 0.0316 µM): 1290 nM
IC50 (second compound 0.1 µM): < 31.6 nM
IC50 (second compound 0.316 µM): < 31.6 nM
IC50 (second compound 1 µM): < 31.6 nM
IC50 (second compound 3.16 µM): < 31.6 nM
viability, T/C [31]: 60.9%
viability, T/C [32]: 55.4%
viability, T/C [33]: 55.6%
viability, T/C [34]: 63.9%
viability, T/C [35]: 18.4%
viability, T/C (second compound 0.0316 µM, first compound 10 µM): 0.28%
viability, T/C [5]: 48.4%
viability, T/C [6]: 50%
viability, T/C [36]: 50.4%
viability, T/C [37]: 47.8%
viability, T/C [38]: 17.3%
viability, T/C (second compound 0.1 µM, first compound 10 µM): 0.84%
viability, T/C [11]: 45%
viability, T/C [12]: 48.5%
viability, T/C [39]: 52.1%
viability, T/C [40]: 45%
viability, T/C [41]: 15%
viability, T/C (second compound 0.316 µM, first compound 10 µM): 0.62%
viability, T/C [17]: 44.1%
viability, T/C [18]: 40.3%
viability, T/C [42]: 39.3%
viability, T/C [43]: 43.3%
viability, T/C [44]: 11.1%
viability, T/C (second compound 1 µM, first compound 10 µM): 0.15%
viability, T/C [23]: 0.22%
viability, T/C [24]: 0.17%
viability, T/C [45]: 0.17%
viability, T/C [46]: 0.16%
viability, T/C [47]: 0.13%
viability, T/C (second compound 3.16 µM, first compound 10 µM): 0.24%

CC1COCCN1c1cc(-c2ccnn2C)c2ccnc(-c3ccn[nH]3)c2n1 (stereo not given) + C=CC(=O)N1CCN(c2nc(OCC3CCCN3C)nc3c2CCN(c2cccc4cccc(C)c24)C3)CC1CC#N
IC50 (second compound 0.0316 µM): 12.5 nM
IC50 (second compound 0.1 µM): 10 nM
IC50 (second compound 0.316 µM): < 10 nM
IC50 (second compound 1 µM): < 10 nM
IC50 (second compound 3.16 µM): < 10 nM
viability, T/C (second compound 0.0316 µM, first compound 0.01 µM): 55.6%
viability, T/C [31]: 26.6%
viability, T/C [32]: 8.55%
viability, T/C [33]: 6.25%
viability, T/C [34]: 6.05%
viability, T/C [35]: 5.16%
viability, T/C [4]: 50.2%
viability, T/C [5]: 21%
viability, T/C [6]: 9.02%
viability, T/C [36]: 5.92%
viability, T/C [37]: 6.34%
viability, T/C [38]: 5.2%
viability, T/C [10]: 35.1%
viability, T/C [11]: 21.6%
viability, T/C [12]: 7.42%
viability, T/C [39]: 4.41%
viability, T/C [40]: 4.61%
viability, T/C [41]: 4.35%
viability, T/C [16]: 29.9%
viability, T/C [17]: 14.6%
viability, T/C [18]: 3.87%
viability, T/C [42]: 3.63%
viability, T/C [43]: 4.58%
viability, T/C [44]: 3.92%
viability, T/C [22]: 0.17%
viability, T/C [23]: 0.63%
viability, T/C [24]: 0.14%
viability, T/C [45]: 0.14%
viability, T/C [46]: 0.29%
viability, T/C [47]: 0.22%

CN(C)C/C=C/C(=O)Nc1cc2c(Nc3ccc(F)c(Cl)c3)ncnc2cc1O[C@H]1CCOC1 + C=CC(=O)N1CCN(c2nc(=O)n(-c3c(C)ccnc3C(C)C)c3nc(-c4c(O)cccc4F)c(F)cc23)C(C)C1
IC50 (second compound 0.1 µM): < 0.316 nM
IC50 (second compound 0.316 µM): > 100 nM
IC50 (second compound 1 µM): > 100 nM
IC50 (second compound 3.16 µM): > 100 nM
IC50 (second compound 10 µM): > 100 nM
viability, T/C [1]: 86.9%
viability, T/C [2]: 95.8%
viability, T/C [3]: 102%
viability, T/C [4]: 101%
viability, T/C [5]: 110%
viability, T/C [6]: 109%
viability, T/C [7]: 87.5%
viability, T/C [8]: 94.9%
viability, T/C [9]: 97%
viability, T/C [10]: 106%
viability, T/C [11]: 116%
viability, T/C [12]: 115%
viability, T/C [13]: 85.5%
viability, T/C [14]: 97.5%
viability, T/C [15]: 92.8%
viability, T/C [16]: 101%
viability, T/C [17]: 115%
viability, T/C [18]: 103%
viability, T/C [19]: 82.6%
viability, T/C [20]: 86.9%
viability, T/C [21]: 91.8%
viability, T/C [22]: 96.7%
viability, T/C [23]: 99.2%
viability, T/C [24]: 96.7%
viability, T/C [25]: 87.2%
viability, T/C [26]: 100%
viability, T/C [27]: 99.6%
viability, T/C [28]: 105%
viability, T/C [29]: 111%
viability, T/C [30]: 115%
